In patent publication US10800816B2 (Baxalta GmbH, priority 2012, dated 2020):
*1 amine or outer side, *2 acyl side, *3 side chain or, on linkers, in order; H or OH if unused. Where a SMILES comes first, the peptide text is derived from it. Bridges are numbered along the chain shown (N, C = ends). Side-chain parts run from the residue outwards. [ ]: non-standard residue; d: D form. The star is where a group is joined. TTDA(Palmitoyl) = CCCCCCCCCCCCCCCC(=O)NCCCOCCOCCOCCCN*; Suc = O=C(CCC(=O)[*:2])[*:1]; Tle = CC(C)(C)[C@H](N)C(=O)O; Hexanoyl = CCCCCC(=O)*; Aib = CC(C)(N)C(=O)O; Acm = CC(=O)NC*; Sar = CNCC(=O)O

Tested on: TFPI
Experiment: IC50 ELISA | Mean IC50 [nM]
Text: Table printed on a drawing sheet, FIGURE 78Z
Head of the field: IC50 ELISA | Mean IC50 [nM]
First copying reader's note: Continued table: the first body row (45.67) belongs to a compound on the preceding sheet, the last row probably continues on the next sheet, and cells with several values list single replicates.

Molecule	IC50 [µM]
CCCCCCCCCCCCCCCC(=O)NCCCOCCOCCOCCCNC(=O)CCC(=O)NCCCC[C@H](NC(=O)[C@H](CC(C)C)NC(=O)[C@H](CCCCN)NC(=O)[C@H](C)NC(=O)C(C)(C)NC(=O)[C@H](CC(C)C)NC(=O)[C@H](CCCNC(=N)N)NC(=O)[C@H](CCC(=O)O)NC(=O)[C@H](Cc1ccccc1)NC(=O)[C@H](Cc1ccc(O)cc1)NC(=O)[C@@H](C)NC(=O)[C@H](CC(=O)O)NC(=O)[C@@H](NC(=O)[C@H](Cc1c[nH]cn1)NC(=O)[C@@H](NC(=O)[C@H](CSCNC(C)=O)NC(=O)[C@H]1CCCN1C(=O)[C@H](CCCCN)NC(=O)[C@H](CO)NC(=O)[C@H](CCC(N)=O)NC(=O)[C@H](Cc1ccccc1)NC(=O)CCCCC)C(C)C)C(C)(C)C)C(N)=O [JBT00002532, Hex-FQSKp-Cys(Acm)-VH-Tle-DaYFERL-Aib-AKLK(Ttds- Palm)--NH2] (Hexanoyl-FQSK[dP]C(Acm)VH[Tle]D[dA]YFERL[Aib]AKLK([Suc-TTDA(Palmitoyl)])-NH2)	0.0367

Tested on: TFPI
Experiment: Extrinsic Tenase Inhibition assay | % Inhibition @ 2.5μM

Molecule	Extrinsic Tenase Inhibition assay | % Inhibition @ […] [%]
Ac-FQSK-Nmg-NVFVTGYFERLRAKL-NH2 (SEQ ID NO: 125) (Ac-FQSK[Sar]NVFVTGYFERLRAKL-NH2; SMILES CC(=O)N[C@@H](Cc1ccccc1)C(=O)N[C@@H](CCC(N)=O)C(=O)N[C@@H](CO)C(=O)N[C@@H](CCCCN)C(=O)N(C)CC(=O)N[C@@H](CC(N)=O)C(=O)N[C@H](C(=O)N[C@@H](Cc1ccccc1)C(=O)N[C@H](C(=O)N[C@H](C(=O)NCC(=O)N[C@@H](Cc1ccc(O)cc1)C(=O)N[C@@H](Cc1ccccc1)C(=O)N[C@@H](CCC(=O)O)C(=O)N[C@@H](CCCNC(=N)N)C(=O)N[C@@H](CC(C)C)C(=O)N[C@@H](CCCNC(=N)N)C(=O)N[C@@H](C)C(=O)N[C@@H](CCCCN)C(=O)N[C@@H](CC(C)C)C(N)=O)[C@@H](C)O)C(C)C)C(C)C) [JBT1155]	32
Ac-FQSKpNVFVFGYFERLRAKL-NH2 (SEQ ID NO: 129) (Ac-FQSK[dP]NVFVFGYFERLRAKL-NH2; SMILES CC(=O)N[C@@H](Cc1ccccc1)C(=O)N[C@@H](CCC(N)=O)C(=O)N[C@@H](CO)C(=O)N[C@@H](CCCCN)C(=O)N1CCC[C@@H]1C(=O)N[C@@H](CC(N)=O)C(=O)N[C@H](C(=O)N[C@@H](Cc1ccccc1)C(=O)N[C@H](C(=O)N[C@@H](Cc1ccccc1)C(=O)NCC(=O)N[C@@H](Cc1ccc(O)cc1)C(=O)N[C@@H](Cc1ccccc1)C(=O)N[C@@H](CCC(=O)O)C(=O)N[C@@H](CCCNC(=N)N)C(=O)N[C@@H](CC(C)C)C(=O)N[C@@H](CCCNC(=N)N)C(=O)N[C@@H](C)C(=O)N[C@@H](CCCCN)C(=O)N[C@@H](CC(C)C)C(N)=O)C(C)C)C(C)C) [JBT1162]	51
Ac-FQSK-Nmg-NVFVAGYFERLRAKL-NH2 (SEQ ID NO: 161) (Ac-FQSK[Sar]NVFVAGYFERLRAKL-NH2; SMILES CC(=O)N[C@@H](Cc1ccccc1)C(=O)N[C@@H](CCC(N)=O)C(=O)N[C@@H](CO)C(=O)N[C@@H](CCCCN)C(=O)N(C)CC(=O)N[C@@H](CC(N)=O)C(=O)N[C@H](C(=O)N[C@@H](Cc1ccccc1)C(=O)N[C@H](C(=O)N[C@@H](C)C(=O)NCC(=O)N[C@@H](Cc1ccc(O)cc1)C(=O)N[C@@H](Cc1ccccc1)C(=O)N[C@@H](CCC(=O)O)C(=O)N[C@@H](CCCNC(=N)N)C(=O)N[C@@H](CC(C)C)C(=O)N[C@@H](CCCNC(=N)N)C(=O)N[C@@H](C)C(=O)N[C@@H](CCCCN)C(=O)N[C@@H](CC(C)C)C(N)=O)C(C)C)C(C)C) [JBT1396]	34
Ac-FQSKKNVFVFGYFERLRAKD-NH2 (SEQ ID NO: 937) [JBT1151]	0
Ac-FQSK-Nmg-NVFVTGYFERL-Aib-AKL-NH2 (SEQ ID NO: 165) (Ac-FQSK[Sar]NVFVTGYFERL[Aib]AKL-NH2; SMILES CC(=O)N[C@@H](Cc1ccccc1)C(=O)N[C@@H](CCC(N)=O)C(=O)N[C@@H](CO)C(=O)N[C@@H](CCCCN)C(=O)N(C)CC(=O)N[C@@H](CC(N)=O)C(=O)N[C@H](C(=O)N[C@@H](Cc1ccccc1)C(=O)N[C@H](C(=O)N[C@H](C(=O)NCC(=O)N[C@@H](Cc1ccc(O)cc1)C(=O)N[C@@H](Cc1ccccc1)C(=O)N[C@@H](CCC(=O)O)C(=O)N[C@@H](CCCNC(=N)N)C(=O)N[C@@H](CC(C)C)C(=O)NC(C)(C)C(=O)N[C@@H](C)C(=O)N[C@@H](CCCCN)C(=O)N[C@@H](CC(C)C)C(N)=O)[C@@H](C)O)C(C)C)C(C)C) [JBT1585]	48
Ac-[CFQSKGNVFVDGYFERLC]AKL-NH2 (SEQ ID NO: 402) (Ac-CFQSKGNVFVDGYFERLCAKL-NH2; disulfide 1-18) [JBT1592]	11
Ac-FQSKKNVFFFGYFERLRAKL-NH2 (SEQ ID NO: 735) [JBT1152]	0
Ac-FQSKGNVFvFGYFERLRAKL-NH2 (SEQ ID NO: 936) (Ac-FQSKGNVF[dV]FGYFERLRAKL-NH2; SMILES CC(=O)N[C@@H](Cc1ccccc1)C(=O)N[C@@H](CCC(N)=O)C(=O)N[C@@H](CO)C(=O)N[C@@H](CCCCN)C(=O)NCC(=O)N[C@@H](CC(N)=O)C(=O)N[C@H](C(=O)N[C@@H](Cc1ccccc1)C(=O)N[C@@H](C(=O)N[C@@H](Cc1ccccc1)C(=O)NCC(=O)N[C@@H](Cc1ccc(O)cc1)C(=O)N[C@@H](Cc1ccccc1)C(=O)N[C@@H](CCC(=O)O)C(=O)N[C@@H](CCCNC(=N)N)C(=O)N[C@@H](CC(C)C)C(=O)N[C@@H](CCCNC(=N)N)C(=O)N[C@@H](C)C(=O)N[C@@H](CCCCN)C(=O)N[C@@H](CC(C)C)C(N)=O)C(C)C)C(C)C) [JBT1149]	0

Tested on: not listed separately
Experiment: FIGURE 78M

Molecule	24 h Human Plasma Stability | Mean Remaining [%]
CCN1C(=O)CC(SC[C@H](NC(=O)[C@H](CC(C)C)NC(=O)[C@H](CCCCN)NC(=O)[C@H](C)NC(=O)C(C)(C)NC(=O)[C@H](CC(C)C)NC(=O)[C@H](CCCNC(=N)N)NC(=O)[C@H](CCC(=O)O)NC(=O)[C@H](Cc2ccccc2)NC(=O)[C@H](Cc2ccc(O)cc2)NC(=O)CNC(=O)[C@H](CC(=O)O)NC(=O)C(C)(C)NC(=O)[C@H](Cc2c[nH]cn2)NC(=O)[C@@H](NC(=O)[C@H](CC(N)=O)NC(=O)[C@H]2CCCN2C(=O)[C@H](CCCCN)NC(=O)[C@H](CO)NC(=O)[C@H](CCC(N)=O)NC(=O)[C@H](Cc2ccccc2)NC(C)=O)C(C)C)C(N)=O)C1=O (some centres unmarked) [JBT00002385, Ac-FQSKpNVH-Aib-DGYFERL-Aib-AKLC(NEM)-NH2]	51.50
CCN1C(=O)CC(SC[C@H](NC(=O)[C@H](CC(C)C)NC(=O)[C@H](CCCCN)NC(=O)[C@H](C)NC(=O)C(C)(C)NC(=O)[C@H](CC(C)C)NC(=O)[C@H](CCCNC(=N)N)NC(=O)[C@H](CCC(=O)O)NC(=O)[C@H](Cc2ccccc2)NC(=O)[C@H](Cc2ccc(O)cc2)NC(=O)CNC(=O)[C@H](CC(=O)O)NC(=O)[C@@H](NC(=O)[C@H](Cc2c[nH]cn2)NC(=O)[C@@H](NC(=O)[C@H](CC(N)=O)NC(=O)[C@H]2CCCN2C(=O)[C@H](CCCCN)NC(=O)[C@H](CO)NC(=O)[C@H](CCC(N)=O)NC(=O)[C@H](Cc2ccccc2)NC(C)=O)C(C)C)C2CCCC2)C(N)=O)C1=O (some centres unmarked) [JBT00002383, Ac-FQSKpNVH-Cpg-DGYFERL-Aib-AKLC(NEM)-NH2]	31.00
CC(=O)N[C@@H](Cc1ccccc1)C(=O)N[C@@H](CCC(N)=O)C(=O)N[C@@H](CO)C(=O)N[C@@H](CCCCN)C(=O)N1CCC[C@@H]1C(=O)N[C@@H](CC(N)=O)C(=O)N[C@H](C(=O)N[C@@H](Cc1c[nH]cn1)C(=O)N[C@H](C(=O)N[C@@H](CS)C(=O)NCC(=O)N[C@@H](Cc1ccc(O)cc1)C(=O)N[C@@H](Cc1ccccc1)C(=O)N[C@@H](CCC(=O)O)C(=O)N[C@@H](CCCNC(=N)N)C(=O)N[C@@H](CC(C)C)C(=O)NC(C)(C)C(=O)N[C@@H](C)C(=O)N[C@@H](CCCCN)C(=O)N[C@@H](CC(C)C)C(N)=O)C(C)C)C(C)C [JBT00002371]	31.20
CC[C@H](NC(=O)[C@H](Cc1c[nH]cn1)NC(=O)[C@@H](NC(=O)[C@H](CC(N)=O)NC(=O)[C@H]1CCCN1C(=O)[C@H](CCCCN)NC(=O)[C@H](CO)NC(=O)[C@H](CCC(N)=O)NC(=O)[C@H](Cc1ccccc1)NC(C)=O)C(C)C)C(=O)N[C@@H](CC(=O)O)C(=O)NCC(=O)N[C@@H](Cc1ccc(O)cc1)C(=O)N[C@@H](Cc1ccccc1)C(=O)N[C@@H](CCC(=O)O)C(=O)N[C@@H](CCCNC(=N)N)C(=O)N[C@@H](CC(C)C)C(=O)NC(C)(C)C(=O)N[C@@H](C)C(=O)N[C@@H](CCCCN)C(=O)N[C@@H](CC(C)C)C(=O)N[C@@H](CSC1CC(=O)N(CC)C1=O)C(N)=O (some centres unmarked) [JBT00002381, Ac-FQSKpNVH-Abu-DGYFERL-Aib-AKLC(NEM)-NH2]	17.30
CCN1C(=O)CC(SC[C@H](NC(=O)[C@H](CC(C)C)NC(=O)[C@H](CCCCN)NC(=O)[C@H](C)NC(=O)C(C)(C)NC(=O)[C@H](CC(C)C)NC(=O)[C@H](CCCNC(=N)N)NC(=O)[C@H](CCC(=O)O)NC(=O)[C@H](Cc2ccccc2)NC(=O)[C@H](Cc2ccc(O)cc2)NC(=O)CNC(=O)[C@H](CC(=O)O)NC(=O)[C@H](CC(F)(F)F)NC(=O)[C@H](Cc2c[nH]cn2)NC(=O)[C@@H](NC(=O)[C@H](CC(N)=O)NC(=O)[C@H]2CCCN2C(=O)[C@H](CCCCN)NC(=O)[C@H](CO)NC(=O)[C@H](CCC(N)=O)NC(=O)[C@H](Cc2ccccc2)NC(C)=O)C(C)C)C(N)=O)C1=O (stereo partly drawn) [JBT00002382, Ac-FQSKpNVH-(L-2-Amino-4,4,4-trifluorobutyric acid)- DGYFERL-Aib-AKLC(NEM)-NH2]	20.50

Tested on: not listed separately
Experiment: FIGURE 78Z

Molecule	24 h Human Plasma Stability | Mean Remaining [%]	24 h Mouse Plasma Stability | Mean Remaining [%]
CCCCCCCCCCCCCCCC(=O)NCCCOCCOCCOCCCNC(=O)CCC(=O)NCCCC[C@H](NC(=O)[C@H](CC(C)C)NC(=O)[C@H](CCCCN)NC(=O)[C@H](C)NC(=O)C(C)(C)NC(=O)[C@H](CC(C)C)NC(=O)[C@H](CCCNC(=N)N)NC(=O)[C@H](CCC(=O)O)NC(=O)[C@H](Cc1ccccc1)NC(=O)[C@H](Cc1ccc(O)cc1)NC(=O)[C@@H](C)NC(=O)[C@H](CC(=O)O)NC(=O)[C@@H](NC(=O)[C@H](Cc1c[nH]cn1)NC(=O)[C@@H](NC(=O)[C@H](CSCNC(C)=O)NC(=O)[C@H]1CCCN1C(=O)[C@H](CCCCN)NC(=O)[C@H](CO)NC(=O)[C@H](CCC(N)=O)NC(=O)[C@H](Cc1ccccc1)NC(=O)CCCCC)C(C)C)C(C)(C)C)C(N)=O [JBT00002532, Hex-FQSKp-Cys(Acm)-VH-Tle-DaYFERL-Aib-AKLK(Ttds- Palm)--NH2] (Hexanoyl-FQSK[dP]C(Acm)VH[Tle]D[dA]YFERL[Aib]AKLK([Suc-TTDA(Palmitoyl)])-NH2)	107.70	67.50
Hex-FQSKp-Cys(Acm)-VH-Tle-DaYFERL-Aib-AKLC(ME- 400MA)-NH2 [JBT00002534]	59.83	69.87
(Hex-FQSKp-Cys(Acm)-VH-Tle-DaYFERL-Aib-AKLC- NH2)2-M2TriO [JBT00002533]	185.13	52.65
